Measurements: publication PMC8627988 (Molecular Metabolism, 2021)

Biological target: T1, PPARγ (Homo sapiens, UniProt P37231)
T1 sequence (P37231 235-505 limits assumed): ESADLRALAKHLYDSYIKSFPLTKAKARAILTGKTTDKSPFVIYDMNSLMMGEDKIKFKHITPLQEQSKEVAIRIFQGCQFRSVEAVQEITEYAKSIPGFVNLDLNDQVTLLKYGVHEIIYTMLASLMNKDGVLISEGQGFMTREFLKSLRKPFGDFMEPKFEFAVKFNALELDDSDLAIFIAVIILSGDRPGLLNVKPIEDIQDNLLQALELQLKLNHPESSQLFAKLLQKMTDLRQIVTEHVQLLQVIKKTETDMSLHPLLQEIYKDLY
Assay: fluorescence polarization competition binding

IC50: ~11 nM
Compound: Cc1c(C)n(Cc2ccc(-c3ccccc3C(=O)O)cc2)c2ccc(C(=O)NCc3cccc(O)c3)cc12 [WO95E, 4'-((5-((3-hydroxybenzyl)carbamoyl)-2,3-dimethyl-1H-indol-1-yl)methyl)-[1,1′-biphenyl]-2-carboxylic acid]
